This is an account of results in paper PMC8295196 (Organic & biomolecular chemistry, 2021).

SMILES strings stand for the structures.

Data set [1] concerns the target T1, Cytidine Deaminase (CDA) (Homo sapiens, UniProt P32320, K27Q). Put plainly: HPLC analysis of enzymatic deamination reactions. It counts as biochemical. Particulars: after 60 minutes.
The target in data set [2] is T1, Cytidine Deaminase (CDA). Put plainly: CDA-mediated deamination monitored by emission. The following applies: for k1 / k2: Michaelis-Menten differential equations; for k−1: Michaelis-Menten, values assumed to be ≤10% of k1 values; for Km: calculated from k1, k−1 and k2.
Data set [3] concerns the target T1, Cytidine Deaminase (CDA). Put plainly: CDA-mediated deamination monitored by absorbance. Particulars: for k1 / k2: Michaelis-Menten differential equations; for k−1: Michaelis-Menten, values assumed to be ≤10% of k1 values; for Km: calculated from k1, k−1 and k2.
The mark [4] stands for this setting: pseudo-first order fit to emission curves.
Setting [5] is: pseudo-first order fit, emission (Em).
Setting [6] is: pseudo-first order fit to absorption curves.
Where [7] appears, read: pseudo-first order fit, absorption (Abs).

T1 sequence (P32320 whole entry K27Q): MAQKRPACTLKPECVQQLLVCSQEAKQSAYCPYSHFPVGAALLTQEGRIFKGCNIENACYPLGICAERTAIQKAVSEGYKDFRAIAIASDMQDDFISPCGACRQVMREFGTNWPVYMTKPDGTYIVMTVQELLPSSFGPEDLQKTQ

For `Cc1sc([C@@H]2O[C@H](CO)[C@@H](O)[C@H]2O)c2[nH]c(=O)nc(N)c12` [^mthC], the “conversion to corresponding U analogue by CDA (HPLC)” value at Cytidine Deaminase (CDA) [1] is reported as “complete conversion”. For the same molecule, at Cytidine Deaminase (CDA) [2] (emission (Em)), the k1 stood at 710000 ± 180000 M⁻¹ s⁻¹; the k2 came to 45 ± 2.3 s⁻¹; the “k−1” value is 0.071 s⁻¹; the Km (as a rule, the substrate concentration at which the rate is half of its maximum) was 63 µM. For the same molecule, the kapp on Cytidine Deaminase (CDA) [2] (setting [4]) was 5.7 ± 0.1 s^–1. In addition, on Cytidine Deaminase (CDA) [2] (setting [5]), the kapp is listed as 5.7 ± 0.1 x 10^−3 s^−1 and the t1/2 was found to be 2 ± 0.13 min. At Cytidine Deaminase (CDA) [3] (absorption (Abs)), the k1 worked out at 750000 ± 160000 M⁻¹ s⁻¹, the k2 turned out to be 56 ± 5.9 s⁻¹, the “k−1” value is 0.075 s⁻¹ and the Km was 75 µM. The kapp on Cytidine Deaminase (CDA) [3] (setting [6]) stood at 6.1 ± 0.2 s^–1. Besides, at Cytidine Deaminase (CDA) [3] (setting [7]), the kapp was 6.1 ± 0.2 x 10^−3 s^−1 and the t1/2 was determined as 1.83 ± 0.033 min.
Consider `Nc1nc(=O)[nH]c2c([C@@H]3O[C@H](CO)[C@@H](O)[C@H]3O)scc12` [^thC], for which the “conversion to corresponding U analogue by CDA (HPLC)” value at Cytidine Deaminase (CDA) [1] was “complete conversion”. At Cytidine Deaminase (CDA) [2] (emission (Em)), the k1 was 950000 ± 140000 M⁻¹ s⁻¹, the k2 was found to be 46 ± 5.3 s⁻¹, the “k−1” value was determined as 0.095 s⁻¹ and the Km is 49 µM. The kapp at Cytidine Deaminase (CDA) [2] (setting [4]) is 7.4 ± 0.1 s^–1. Besides, on Cytidine Deaminase (CDA) [2] (setting [5]), the kapp is recorded as 7.4 ± 0.1 x 10^−3 s^−1 and the t1/2 turned out to be 1.57 ± 0.033 min. In addition, on Cytidine Deaminase (CDA) [3] (absorption (Abs)), the k1 is 1.01e+06 ± 470000 M⁻¹ s⁻¹, the k2 came to 34 ± 7.2 s⁻¹, the “k−1” value amounted to 0.101 s⁻¹ and the Km is 34 µM. This molecule also gave a kapp at Cytidine Deaminase (CDA) [3] (setting [6]) of 7.2 ± 0.2 s^–1. Also, on Cytidine Deaminase (CDA) [3] (setting [7]), the kapp is reported as 7.2 ± 0.2 x 10^−3 s^−1 and the t1/2 was determined as 1.53 ± 0.083 min.
On to `Nc1nc(=O)[nH]c2c([C@@H]3O[C@H](CO)[C@@H](O)[C@H]3O)snc12` [^tzC], for which the “conversion to corresponding U analogue by CDA (HPLC)” value on Cytidine Deaminase (CDA) [1] is “complete conversion”. Also, the results for the k1 at Cytidine Deaminase (CDA) [2] (emission (Em)) and on Cytidine Deaminase (CDA) [3] (absorption (Abs)) were 1.06e+06 ± 320000 M⁻¹ s⁻¹ and 1.04e+06 ± 10000 M⁻¹ s⁻¹, respectively. In addition, the values for the k2 at Cytidine Deaminase (CDA) [2] (emission (Em)) and on Cytidine Deaminase (CDA) [3] (absorption (Abs)) were 4.6 ± 1.3 s⁻¹ and 3.2 ± 0.3 s⁻¹, respectively. For the same molecule, the results for the “k−1” value on Cytidine Deaminase (CDA) [2] (emission (Em)) and at Cytidine Deaminase (CDA) [3] (absorption (Abs)) were 0.106 s⁻¹ and 0.104 s⁻¹, respectively. Moreover, the Km at Cytidine Deaminase (CDA) [2] (emission (Em)) was 4.4 µM; on Cytidine Deaminase (CDA) [3] (absorption (Abs)), 3.1 µM. For the same molecule, the kapp on Cytidine Deaminase (CDA) [2] (setting [4]) was 4.1 ± 0.1 s^–1; at Cytidine Deaminase (CDA) [2] (setting [5]), 4.1 ± 0.1 x 10^−3 s^−1; at Cytidine Deaminase (CDA) [3] (setting [6]), 3.3 ± 0.1 s^–1; on Cytidine Deaminase (CDA) [3] (setting [7]), 3.3 ± 0.1 x 10^−3 s^−1. The t1/2 at Cytidine Deaminase (CDA) [2] (setting [5]) came out at 2.83 ± 0.167 min; on Cytidine Deaminase (CDA) [3] (setting [7]), 3.5 ± 0.267 min.
